Measurements as given in ChEMBL document CHEMBL4265897, “Discovery of benzothiazole amides as potent antimycobacterial agents” (Bioorg Med Chem Lett, 2018).
≈ marks a conversion by molar mass, not a printed value.

Experiments:
[1] = system: Mycolicibacterium fortuitum; experiment: Antimycobacterial activity against Mycobacterium fortuitum 41 by CLSI method; format: functional
Mycobacterium avium = experiment: Antimycobacterial activity against Mycobacterium avium 101 by CLSI method; format: functional
[2] = system: Mycobacteroides abscessus; experiment: Antimycobacterial activity against Mycobacterium massiliense 119 by CLSI method; format: functional, Mycobacterium abscessus subsp. massiliense
[3] = system: Mycobacteroides abscessus; experiment: Antimycobacterial activity against Mycobacterium abscessus 103 by CLSI method; format: functional
[4] = system: Mycobacteroides abscessus; experiment: Antimycobacterial activity against Mycobacterium abscessus 1 by CLSI method; format: functional
[5] = system: Mycolicibacterium peregrinum; experiment: Antimycobacterial activity against Mycobacterium peregrinum ATCC 700686 by CLSI method; format: functional
Mycobacteroides chelonae = experiment: Antimycobacterial activity against Mycobacterium chelonae 93 by CLSI method; format: functional
[6] = system: Mycobacteroides abscessus; experiment: Antimycobacterial activity against Mycobacterium abscessus 21 by CLSI method; format: functional
[7] = system: Mycobacteroides abscessus; experiment: Antimycobacterial activity against Mycobacterium abscessus 79 by CLSI method; format: functional
[8] = system: Mycobacterium intracellulare; experiment: Antimycobacterial activity against Mycobacterium intracellulare 1956 by CLSI method; format: functional
[9] = system: Mycobacterium tuberculosis; experiment: Antimycobacterial activity against Mycobacterium tuberculosis H37Rv MC2 6206 by CLSI method; format: functional
[10] = system: Mycobacteroides abscessus; experiment: Antimycobacterial activity against Mycobacterium abscessus ATCC 19977 by CLSI method; format: functional

CC1CC(C(=O)Nc2nc3cc(F)cc(F)c3s2)CC(C)(C)C1 (stereo unspecified)
MIC [1]: 0.25 µg/mL (≈ 0.739 µM) | MIC (Mycobacterium avium): 8 µg/mL (≈ 23.6 µM) | MIC [2]: 0.25 µg/mL (≈ 0.739 µM) | MIC [3]: 0.25 µg/mL (≈ 0.739 µM) | MIC [4]: 0.5 µg/mL (≈ 1.48 µM) | MIC [5]: 0.12 µg/mL (≈ 0.355 µM) | MIC (Mycobacteroides chelonae): 0.25 µg/mL (≈ 0.739 µM) | MIC [6]: 0.25 µg/mL (≈ 0.739 µM) | MIC [7]: 0.25 µg/mL (≈ 0.739 µM) | MIC [8]: 8 µg/mL (≈ 23.6 µM)

CC12CCCC(C(=O)Nc3nc4c(F)c(F)c(F)cc4s3)(CCC1)C2
MIC [1]: 0.5 µg/mL (≈ 1.36 µM) | MIC (Mycobacterium avium): > 8 µg/mL | MIC [2]: 0.12 µg/mL (≈ 0.326 µM) | MIC [3]: 0.12 µg/mL (≈ 0.326 µM) | MIC [4]: 0.25 µg/mL (≈ 0.679 µM) | MIC [5]: 0.06 µg/mL (≈ 0.163 µM) | MIC (Mycobacteroides chelonae): 0.12 µg/mL (≈ 0.326 µM) | MIC [6]: 0.12 µg/mL (≈ 0.326 µM) | MIC [9]: ≤ 0.12 µg/mL | MIC [7]: 0.12 µg/mL (≈ 0.326 µM) | MIC [8]: 8 µg/mL (≈ 21.7 µM)

CC1CC(C(=O)Nc2nc3c(F)c(F)c(F)cc3s2)CC(C)(C)C1 (stereo unspecified)
MIC [1]: 0.25 µg/mL (≈ 0.701 µM) | MIC (Mycobacterium avium): > 64 µg/mL | MIC [2]: 0.5 µg/mL (≈ 1.4 µM) | MIC [3]: 0.5 µg/mL (≈ 1.4 µM) | MIC [4]: 0.5 µg/mL (≈ 1.4 µM) | MIC [5]: 0.12 µg/mL (≈ 0.337 µM) | MIC (Mycobacteroides chelonae): 0.25 µg/mL (≈ 0.701 µM) | MIC [6]: 0.5 µg/mL (≈ 1.4 µM) | MIC [9]: 1 µg/mL (≈ 2.81 µM) | MIC [7]: 0.25 µg/mL (≈ 0.701 µM) | MIC [8]: > 64 µg/mL

CC1CC(C(=O)Nc2nc3ccccc3s2)CC(C)(C)C1 (stereo unspecified)
MIC [1]: 1 µg/mL (≈ 3.31 µM) | MIC (Mycobacterium avium): 8 µg/mL (≈ 26.5 µM) | MIC [2]: 2 µg/mL (≈ 6.61 µM) | MIC [3]: 1 µg/mL (≈ 3.31 µM) | MIC [4]: 2 µg/mL (≈ 6.61 µM) | MIC [5]: 0.5 µg/mL (≈ 1.65 µM) | MIC (Mycobacteroides chelonae): 1 µg/mL (≈ 3.31 µM) | MIC [6]: 2 µg/mL (≈ 6.61 µM) | MIC [9]: 8 µg/mL (≈ 26.5 µM) | MIC [7]: 1 µg/mL (≈ 3.31 µM) | MIC [8]: 8 µg/mL (≈ 26.5 µM)

O=C(Nc1nc2ccc(C(F)(F)F)cc2s1)C1CCCC(C(F)(F)F)C1 (stereo unspecified)
MIC [1]: 2 µg/mL (≈ 5.05 µM) | MIC (Mycobacterium avium): 16 µg/mL (≈ 40.4 µM) | MIC [2]: 1 µg/mL (≈ 2.52 µM) | MIC [4]: 2 µg/mL (≈ 5.05 µM) | MIC [5]: 1 µg/mL (≈ 2.52 µM) | MIC (Mycobacteroides chelonae): 0.5 µg/mL (≈ 1.26 µM) | MIC [6]: 1 µg/mL (≈ 2.52 µM) | MIC [7]: 2 µg/mL (≈ 5.05 µM) | MIC [8]: 16 µg/mL (≈ 40.4 µM)

CC1CC(C(=O)Nc2nc3c(F)cccc3s2)CC(C)(C)C1 (stereo unspecified)
MIC [1]: 0.5 µg/mL (≈ 1.56 µM) | MIC (Mycobacterium avium): 8 µg/mL (≈ 25 µM) | MIC [2]: 1 µg/mL (≈ 3.12 µM) | MIC [4]: 2 µg/mL (≈ 6.24 µM) | MIC [5]: 2 µg/mL (≈ 6.24 µM) | MIC (Mycobacteroides chelonae): 2 µg/mL (≈ 6.24 µM) | MIC [6]: 1 µg/mL (≈ 3.12 µM) | MIC [9]: 4 µg/mL (≈ 12.5 µM) | MIC [7]: 2 µg/mL (≈ 6.24 µM) | MIC [8]: 8 µg/mL (≈ 25 µM)

CC1CC(C(=O)Nc2nc3ccc(OC(F)F)cc3s2)CC(C)(C)C1 (stereo unspecified)
MIC [1]: 0.5 µg/mL (≈ 1.36 µM) | MIC (Mycobacterium avium): > 64 µg/mL | MIC [2]: 0.5 µg/mL (≈ 1.36 µM) | MIC [3]: 0.5 µg/mL (≈ 1.36 µM) | MIC [4]: 1 µg/mL (≈ 2.71 µM) | MIC [5]: 0.12 µg/mL (≈ 0.326 µM) | MIC (Mycobacteroides chelonae): 0.25 µg/mL (≈ 0.679 µM) | MIC [6]: 0.5 µg/mL (≈ 1.36 µM) | MIC [9]: 2 µg/mL (≈ 5.43 µM) | MIC [7]: 0.5 µg/mL (≈ 1.36 µM) | MIC [8]: 8 µg/mL (≈ 21.7 µM)

CC12CCCC(C(=O)Nc3nc4c(F)cc(F)cc4s3)(CCC1)C2
MIC [1]: 0.25 µg/mL (≈ 0.713 µM) | MIC (Mycobacterium avium): 4 µg/mL (≈ 11.4 µM) | MIC [2]: 0.12 µg/mL (≈ 0.342 µM) | MIC [3]: 0.25 µg/mL (≈ 0.713 µM) | MIC [5]: 0.06 µg/mL (≈ 0.171 µM) | MIC (Mycobacteroides chelonae): 0.12 µg/mL (≈ 0.342 µM) | MIC [6]: 0.12 µg/mL (≈ 0.342 µM) | MIC [7]: 0.12 µg/mL (≈ 0.342 µM) | MIC [8]: 4 µg/mL (≈ 11.4 µM)

CC1(C)CCC(C(=O)Nc2nc3ccc(C(F)(F)F)cc3s2)CC1
MIC (Mycobacterium avium): 64 µg/mL (≈ 180 µM) | MIC [10]: > 64 µg/mL | MIC [8]: 64 µg/mL (≈ 180 µM)

CC12CCCC(C(=O)Nc3nc4ccc(Br)cc4s3)(CCC1)C2
MIC [1]: 0.5 µg/mL (≈ 1.27 µM) | MIC (Mycobacterium avium): 8 µg/mL (≈ 20.3 µM) | MIC [2]: 0.12 µg/mL (≈ 0.305 µM) | MIC [3]: 0.12 µg/mL (≈ 0.305 µM) | MIC [4]: 0.25 µg/mL (≈ 0.636 µM) | MIC [5]: 0.12 µg/mL (≈ 0.305 µM) | MIC (Mycobacteroides chelonae): 0.25 µg/mL (≈ 0.636 µM) | MIC [6]: 0.12 µg/mL (≈ 0.305 µM) | MIC [7]: 0.12 µg/mL (≈ 0.305 µM) | MIC [8]: 4 µg/mL (≈ 10.2 µM)

CC12CCCC(C(=O)Nc3nc4ccc(Cl)cc4s3)(CCC1)C2
MIC [1]: 0.25 µg/mL (≈ 0.717 µM) | MIC (Mycobacterium avium): 8 µg/mL (≈ 22.9 µM) | MIC [2]: 0.12 µg/mL (≈ 0.344 µM) | MIC [3]: 0.12 µg/mL (≈ 0.344 µM) | MIC [4]: 0.25 µg/mL (≈ 0.717 µM) | MIC [5]: 0.12 µg/mL (≈ 0.344 µM) | MIC (Mycobacteroides chelonae): 0.25 µg/mL (≈ 0.717 µM) | MIC [6]: 0.12 µg/mL (≈ 0.344 µM) | MIC [9]: 0.5 µg/mL (≈ 1.43 µM) | MIC [7]: 0.12 µg/mL (≈ 0.344 µM) | MIC [8]: 4 µg/mL (≈ 11.5 µM)

Cc1cc(C)c2sc(NC(=O)C34CCCC(C)(CCC3)C4)nc2c1
MIC [1]: 1 µg/mL (≈ 2.92 µM) | MIC (Mycobacterium avium): 8 µg/mL (≈ 23.4 µM) | MIC [2]: 0.12 µg/mL (≈ 0.35 µM) | MIC [3]: 0.25 µg/mL (≈ 0.73 µM) | MIC [4]: 0.25 µg/mL (≈ 0.73 µM) | MIC [5]: 0.25 µg/mL (≈ 0.73 µM) | MIC (Mycobacteroides chelonae): 0.12 µg/mL (≈ 0.35 µM) | MIC [6]: 0.12 µg/mL (≈ 0.35 µM) | MIC [7]: 0.12 µg/mL (≈ 0.35 µM) | MIC [8]: 8 µg/mL (≈ 23.4 µM)

CC1CCCC(C(=O)Nc2nc3ccc(C(F)(F)F)cc3s2)C1 (stereo unspecified)
MIC [1]: 2 µg/mL (≈ 5.84 µM) | MIC (Mycobacterium avium): 16 µg/mL (≈ 46.7 µM) | MIC [2]: 2 µg/mL (≈ 5.84 µM) | MIC [4]: 4 µg/mL (≈ 11.7 µM) | MIC [5]: 1 µg/mL (≈ 2.92 µM) | MIC (Mycobacteroides chelonae): 1 µg/mL (≈ 2.92 µM) | MIC [6]: 2 µg/mL (≈ 5.84 µM) | MIC [9]: 16 µg/mL (≈ 46.7 µM) | MIC [7]: 2 µg/mL (≈ 5.84 µM) | MIC [8]: 16 µg/mL (≈ 46.7 µM)

Cc1cc(C)c2sc(NC(=O)C3CC(C)CC(C)(C)C3)nc2c1 (stereo unspecified)
MIC [1]: 0.5 µg/mL (≈ 1.51 µM) | MIC (Mycobacterium avium): > 64 µg/mL | MIC [2]: 0.5 µg/mL (≈ 1.51 µM) | MIC [3]: 0.25 µg/mL (≈ 0.756 µM) | MIC [4]: 0.5 µg/mL (≈ 1.51 µM) | MIC [5]: 0.25 µg/mL (≈ 0.756 µM) | MIC (Mycobacteroides chelonae): 0.25 µg/mL (≈ 0.756 µM) | MIC [6]: 0.25 µg/mL (≈ 0.756 µM) | MIC [7]: 0.25 µg/mL (≈ 0.756 µM) | MIC [8]: > 64 µg/mL

CC1(C(=O)Nc2nc3ccc(OC(F)(F)F)cc3s2)CCCCC1
MIC [1]: 2 µg/mL (≈ 5.58 µM) | MIC (Mycobacterium avium): 8 µg/mL (≈ 22.3 µM) | MIC [2]: 0.12 µg/mL (≈ 0.335 µM) | MIC [3]: 0.12 µg/mL (≈ 0.335 µM) | MIC [5]: 0.5 µg/mL (≈ 1.4 µM) | MIC (Mycobacteroides chelonae): 0.25 µg/mL (≈ 0.698 µM) | MIC [6]: 0.12 µg/mL (≈ 0.335 µM) | MIC [9]: 4 µg/mL (≈ 11.2 µM) | MIC [7]: 0.12 µg/mL (≈ 0.335 µM) | MIC [8]: 4 µg/mL (≈ 11.2 µM)

CC1(C(=O)Nc2nc3ccc(OC(F)(F)F)cc3s2)CCCCCC1
MIC [1]: 2 µg/mL (≈ 5.37 µM) | MIC (Mycobacterium avium): 8 µg/mL (≈ 21.5 µM) | MIC [2]: 0.12 µg/mL (≈ 0.322 µM) | MIC [3]: 0.25 µg/mL (≈ 0.671 µM) | MIC [4]: 0.25 µg/mL (≈ 0.671 µM) | MIC [5]: 0.5 µg/mL (≈ 1.34 µM) | MIC (Mycobacteroides chelonae): 0.25 µg/mL (≈ 0.671 µM) | MIC [6]: 0.12 µg/mL (≈ 0.322 µM) | MIC [7]: 0.12 µg/mL (≈ 0.322 µM) | MIC [8]: 4 µg/mL (≈ 10.7 µM)
